One assay concerns calf thymus DNA (ctDNA). Kind of assay: DNA melting temperature analysis (UV thermal denaturation). It counts as binding. As to the method:
Conditions: 2.09 mM NaH2PO4, 7.13 mM Na2HPO4, 928 μM Na2EDTA, 1.01 mM DMSO, pH 7.18. The imine 15a was incubated with ctDNA for 5 min, 1 h, 3 h, 6 h, or 15 h prior to UV thermal denaturation experiments (260 nm, heating rate: 0.5° C./min). [DNA]=32.0 mM bps. The Tm was defined as the temperature at which half of the duplex DNA was unwound, and was determined by the maximum of the first derivative of the thermal denaturation profile.
Conditions: 2.09 mM NaH2PO4, 7.13 mM Na2HPO4, 928 μM Na2EDTA, 1.01 mM DMSO, pH 7.18. The pyridone 17a was incubated with ctDNA for 3 h prior to UV thermal denaturation experiments (260 nm, heating rate: 0.5° C./min). [DNA]=32.0 mM bps. The Tm was defined as the temperature at which half of the duplex DNA was unwound, and was determined by the maximum of the first derivative of the thermal denaturation profile.
A DNA melting temperature analysis was conducted to determine if the variance in DNA alkylation activity between the pyridones and the unsaturated imines was due to differences in DNA binding affinity. The hyperchromicity of calf thymus DNA (ctDNA) with increasing temperature was measured at 260 nm in the presence of varying concentrations of 15a or 17a. The Tm was defined as the temperature at which half of the duplex DNA was unwound and was determined by the maximum of the first derivative of the thermal denaturation profile. […] The inventors hypothesized that this was due to an initial binding of 15a to the duplex followed by slow alkylation and degradation. To probe this, they repeated the plasmid alkylation assay using 15a and evaluated the extent of DNA alkylation as a function of time.
UV thermal denaturation samples were prepared by mixing calf thymus DNA [32.0 mM base pairs (bps)] in 2.09 mM NaH2PO4, 7.13 mM Na2HPO4, 928 μM Na2EDTA, 1.01 mM DMSO, pH 7.18 to a final volume of 1.0 mL. Samples were subjected to sonication (6 h) at 25° C. to effect complete dissolution. After incubation with 15a, 15b, 17a, and 17b for 5 min, 1 h, 3 h, 6 h, or 15 h, the UV thermal denaturation spectra of the samples were recorded at 260 nm as a function of temperature (55→80° C., heating rate: 0.5° C./min). First derivative plots were used to determine the denaturation temperature.

The test system of a further assay is linearized pBR322 DNA. Kind of assay: DNA alkylation assay (electrophoretic gel assay) with linearized pBR322 DNA. The format is biochemical. The following applies: 37° C.; for DNA cross-linking: 10 μM. As to the method:
FIG. 17 A. DNA alkylation assay employing linearized pBR322 DNA and the pyridone derivatives 17a or 17b or the unsaturated imines 15a or 15b. Conditions: Linearized pBR322 DNA (20 μM in base pairs (bps)), 15a (100, 10, 1, 0.5, or 0.1 μM), 15b (500, 100, 10, or 1 μM), 17a (500 or 100 μM) or 17b (500 or 100 μM), 37° C., 15 h. Cisplatin (CP; 100 μM) and methyl methanesulfonate (MMS; 500, 100, or 10 μM) were used as positive controls for DNA cross-linking and alkylation, respectively. DNA was visualized using SybrGold. B. DNA alkylation assay employing linearized pBR322 DNA and the unsaturated imine 15a. Conditions: Linearized pBR322 DNA (20 μM in base pairs), 15a (100, 10, 1, 0.1, 0.05, 0.01, or 0.005 μM), 37° C., 15 h.
FIG. 19 A. Structures of the dimer 15c and the gem-dimethyl derivative 15d. B. DNA alkylation assay employing linearized pBR322 DNA and the dimer 15c or the gem-dimethyl derivative 15d. Conditions: Linearized pBR322 DNA (20 μM in base pairs), 15c (10 μM) or 15d (500 or 100 μM), 37° C., 0.1-15 h.
B. DNA alkylation assay employing linearized pBR322 DNA and the unsaturated lactam 19 or the unsaturated imine 15j. Conditions: Linearized pBR322 DNA (20 μM in base pairs), 19 (500, 100, 10, or 1 μM) or 15j (500, 100, 10, or 1 μM), 37° C., 15 h.
Conditions: Linearized pBR322 DNA (20 μM in base pairs), 15h (1, 0.1, or 0.01 μM), 15i (1, 0.1, or 0.01 μM), 15f (1, 0.1, or 0.01 μM), 15g (1, 0.1, or 0.01 μM), 15a (1, 0.1, or 0.01 μM), 15e (1, 0.1, or 0.01 μM), 37° C., 15 h. Methyl methanesulfonate (MMS; 500 or 100 μM) was used as a positive control for DNA alkylation. DNA was visualized using SybrGold.
The activity of 15a, 15b, 17a, and 17b was evaluated in a DNA alkylation assay. Plasmid pBR322 DNA was treated with EcoRI-HF in Cutsmart buffer, and the resulting linearized DNA was incubated with 15a, 15b, 17a, or 17b for 15 h at 37° C. The DNA was then denatured, and the sample was eluted on a 1% neutral agarose gel. DNA was visualized with SybrGold. Cisplatin (CP, 100 μM) and methyl methanesulfonate (MMS, 500, 100, or 10 μM) were used as positive controls for DNA cross-linking and alkylation, respectively. […] The streaking of DNA induced by 15a and 15b parallels that observed with 500 μM of MMS and derives from the presence of shorter DNA strands that are formed by thermal or alkaline denaturation of extensively-alkylated (or in the case of MMS, methylated) DNA.^16 Further evidence for direct alkylation by 15a and 15b is presented in the cross-linking study outlined below.
The […] plasmid pBR322 was propogated in DH5a, isolated by MaxiPrep (Qiagen), and linearized with 5 U/μg EcoRI (NEB). The cut plasmid was column purified and eluted into 10 mM Tris pH 8.0. For each reaction, 130 ng of DNA (20 μM base pairs) was incubated with compound in a 10 μL total volume. Reactions proceeded for 15 h at 37° C., unless otherwise noted. Compounds were diluted in DMSO such that each reaction consisted of a fixed 5% DMSO concentration. Pure MMS (Alfa Aesar) and cisplatin (Biovision) stock solutions were diluted into DMSO immediately prior to use. After incubation, 35 μL of denaturation buffer (6% sucrose, 1% sodium hydroxide, 0.04% bromophenol blue) was added to each reaction. Non-denatured control samples were diluted with 6% sucrose, 0.04% bromophenol blue. Samples were vortexed for 1 min, left at room temperature for 15 min, and then immediately frozen at −80° C. Thawed samples were then loaded onto a 1% agarose Tris-Borate-EDTA (TBE) gel stained with SybrGold (Molecular Probes) and run in TBE buffer for 1 hour at 120V.

Assay [1] concerns colibactin peptidase ClbP. Briefly: LC-HRMS analysis for the in vivo cleavage of synthetic 6 by ClbP. The format is cell-based. The following applies: 50 μM in E. coli DH10B pClbP culture, 37° C., 24 h. As to the method:
E. coli DH10B pClbP (pPEB018) and the bacteria harboring the empty vector pBAD18 (as previously reported^3) were grown in LB medium supplemented with 100 μg/mL ampicillin. The next morning, 50 μL of these saturated cultures were used to inoculate 2.5 mL of LB medium containing 100 μg/mL ampicillin. Cultures were incubated at 37° C. with shaking at 250 rpm. At an OD600 of 0.4-0.5, cultures were induced with L-arabinose and left to grow for another 30 min. Then, the synthetic 6 substrate (10 mM stock solution in DMSO) or DMSO (vector control) was added to each culture to a final concentration of 50 μM, and incubated at 37° C. for 24 h. At the designated time point, the cultures were extracted with organic solvent and analyzed by LC-HRMS on a Phenomenex C18-A column (150×4.6 mm, 180 Å, 5 μm particle size, Agilent) with a water:acetonitrile (ACN) gradient containing 0.1% formic acid 0.7 mL/min: 1-2 min, 5% ACN; ramp to 98% ACN over 18 min; hold for 5 min at 100% ACN.

Assay [2] concerns colibactin peptidase ClbP. To be noted: earlier publication (ref. 10); cited from earlier work.
Setting [3] is: linearized pBR322 DNA (20 μM bp), 15 h.
Where [4] appears, read: 2 bp equiv, incubation 5 min to 15 h.
[5] abbreviates: linearized pBR322 DNA (20 μM bp), 15 h, concentrations up to 500 μM.

Structures are written as SMILES. Entries after “also recorded” stand apart in the source; their conditions may differ.

Take `C[C@H]1CCC(C2=C(CC(=O)NCc3nc(-c4nc(C(=O)NCCN(C)C)cs4)cs3)C3(CC3)NC2=O)=N1` [15a]: the “time dependence of the effect on melting temperature / duplex stability” value in the assay with calf thymus DNA (ctDNA) (1 or 2 bp equiv, incubation 5 min, 1 h, 3 h, 6 h or 15 h) was “time-dependent effects on duplex stability; also recorded: Time-dependent modulation of the melting temperature”. Moreover, the duplex stability result was “duplex stability decreased” in the assay on calf thymus DNA (ctDNA) (longer incubations (3-15 h), 1 or 2 bp equiv) and “stabilization of the duplex was observed” in the assay with calf thymus DNA (ctDNA) (times less than 1 h, 1 or 2 bp equiv). The “increase in Tm” value in the assay on calf thymus DNA (ctDNA) (rligand/bp=2) worked out at 1.8 °C. In the assay on linearized pBR322 DNA (5 nM, 15 h (FIG. 17B)), the “extent of DNA damage, dose response” value was “negligible”. Also, the “extent of DNA alkylation as a function of time” value with linearized pBR322 DNA (1 μM, 0.1-15 h (FIG. 18C)) is given as “alkylation activity correlated approximately with the decrease in duplex stability”. For the same molecule, the “DNA damage, dose response” value in the assay with linearized pBR322 DNA (50 or 10 nM, 15 h (FIG. 17B)) is “small amounts of DNA damage”. In addition, the “DNA alkylation, dose response” value in the assay with linearized pBR322 DNA (concentrations as low as 100 nM, 15 h (FIG. 17B)) was “extensive DNA alkylation”. Also, the DNA alkylation result in the assay with linearized pBR322 DNA (setting [3]) is “extensively alkylated DNA”. The “DNA alkylation activity relative to 15b” value with linearized pBR322 DNA (linearized pBR322 DNA, 15 h (FIG. 17A)) is “significantly more active than the N-methylamide 15b”.
In the case of `CNC(=O)c1csc(-c2csc(CNC(=O)CC3=C(C4=N[C@@H](C)CC4)C(=O)NC34CC4)n2)n1` [15b], the “modulation of the melting temperature of calf thymus DNA” value in the assay with calf thymus DNA (ctDNA) (1 bp equiv, incubation 5 min, 3 h or 15 h) was “no significant modulation”; in the assay with calf thymus DNA (ctDNA) (setting [4]), “no significant modulation”. Moreover, the DNA alkylation entry with linearized pBR322 DNA (setting [3]) was “extensively alkylated DNA”.
With `C[C@H]1CCC(C2=C(CC(=O)NCc3nc(-c4nc(C(=O)NCCCN(C)CCCNC(=O)c5csc(-c6csc(CNC(=O)CC7=C(C8=N[C@@H](C)CC8)C(=O)NC78CC8)n6)n5)cs4)cs3)C3(CC3)NC2=O)=N1` [15c], the DNA cross-linking result is reported as “a clear cross-linked band” in the assay on linearized pBR322 DNA (3 h) and “this cross-linked band diminished” with linearized pBR322 DNA (later timepoints (6 or 15 h)).
Turning to `C[C@H]1CCC(C2=C(CC(=O)NCc3nc(-c4nc(C(=O)NCCN(C)C)cs4)cs3)C(C)(C)NC2=O)=N1` [15d], the DNA alkylation activity entry with linearized pBR322 DNA (setting [5]) is “did not alkylate DNA”.
On to `C[C@H]1CCC(C2=C(CC(=O)N(C)Cc3nc(-c4nc(C(=O)NCCN(C)C)cs4)cs3)C3(CC3)NC2=O)=N1` [15j], for which the “DNA alkylation / decomposition of the DNA” value in the assay with linearized pBR322 DNA (10 or 1 μM, 15 h (FIG. 21B)) is listed as “extensive decomposition of the DNA”. Moreover, the “DNA alkylation potency relative to lactam 19” value in the assay with linearized pBR322 DNA (15 h (FIG. 21B)) is on record as “significantly more potent”.
Consider `C[C@H](N)CCc1c2c(cc(=O)n1Cc1nc(-c3nc(C(=O)NCCN(C)C)cs3)cs1)C1(CC1)NC2=O` [17a], for which the “effect of increasing amounts on melting temperature of ctDNA” value in the assay on calf thymus DNA (ctDNA) (incubated with ctDNA for 3 h, 260 nm) is listed as “dose-dependent increase in the melting temperature”. Moreover, the “increase in Tm” value worked out at 3.8 °C with calf thymus DNA (ctDNA) (ratio of compound to base pairs of 4.0, incubated 3 h) and 2.8 °C in the assay on calf thymus DNA (ctDNA) (rligand/bp=2). The DNA alkylation activity entry in the assay on linearized pBR322 DNA (setting [5]) was “neither of the pyridone derivatives 17a or 17b displayed measurable activity”.
On to `CNC(=O)c1csc(-c2csc(Cn3c(CC[C@H](C)N)c4c(cc3=O)C3(CC3)NC4=O)n2)n1` [17b], for which the “modulation of the melting temperature of calf thymus DNA” value in the assay on calf thymus DNA (ctDNA) (setting [4]) is “no significant modulation”. In addition, the DNA alkylation activity result in the assay on linearized pBR322 DNA (setting [5]) is “neither of the pyridone derivatives 17a or 17b displayed measurable activity”.
With `C[C@@H](CCC(=O)C1=C(CC(=O)N(C)Cc2nc(-c3nc(C(=O)NCCN(C)C)cs3)cs2)C2(CC2)NC1=O)NC(=O)OC(C)(C)C` [compound 19], the DNA alkylation activity entry in the assay on linearized pBR322 DNA (500 μM, 15 h (FIG. 21B)) was “weak DNA alkylation activity”.
With `CCCCCCCCCCCCCC(=O)N[C@H](CC(N)=O)C(=O)N[C@@H](C)CCc1c2c(cc(=O)n1Cc1nc(-c3nc(C(=O)O)cs3)cs1)C1(CC1)NC2=O` [precolibactin C (6)], in assay [1], the “cleavage by ClbP” value was “converted to N-myristoyl-D-Asn and its corresponding colibactin by colibactin peptidase ClbP; also recorded: converted to N-myristoyl-D-Asn and its corresponding colibactin in a ClbP-dependent manner”. For the same molecule, in assay [2], the “substrate for ClbP” value was “demonstrated to be a substrate for ClbP”.

The values above are taken from patent publication US20190031650A1, “DNA ALKYLATION AND CROSS-LINKING AGENTS AS COMPOUNDS AND PAYLOADS FOR TARGETED THERAPIES” (YALE UNIVERSITY, priority 2016, published 2019).
